Data taken from patent US9624214B2, “Amino-substituted imidazo[1,2-a]pyridinecarboxamides and their use” (BAYER PHARMA AKTIENGESELLSCHAFT, priority 2012, dated 2017).
Each block holds one compound with its values, some of them ahead of it.

Target: T1, recombinant guanylate cyclase reporter cell line (Rattus norvegicus, UniProt P19686+P20595)
T1 construct: expressed in transfected cells
T1 sequence (P20595 1-619): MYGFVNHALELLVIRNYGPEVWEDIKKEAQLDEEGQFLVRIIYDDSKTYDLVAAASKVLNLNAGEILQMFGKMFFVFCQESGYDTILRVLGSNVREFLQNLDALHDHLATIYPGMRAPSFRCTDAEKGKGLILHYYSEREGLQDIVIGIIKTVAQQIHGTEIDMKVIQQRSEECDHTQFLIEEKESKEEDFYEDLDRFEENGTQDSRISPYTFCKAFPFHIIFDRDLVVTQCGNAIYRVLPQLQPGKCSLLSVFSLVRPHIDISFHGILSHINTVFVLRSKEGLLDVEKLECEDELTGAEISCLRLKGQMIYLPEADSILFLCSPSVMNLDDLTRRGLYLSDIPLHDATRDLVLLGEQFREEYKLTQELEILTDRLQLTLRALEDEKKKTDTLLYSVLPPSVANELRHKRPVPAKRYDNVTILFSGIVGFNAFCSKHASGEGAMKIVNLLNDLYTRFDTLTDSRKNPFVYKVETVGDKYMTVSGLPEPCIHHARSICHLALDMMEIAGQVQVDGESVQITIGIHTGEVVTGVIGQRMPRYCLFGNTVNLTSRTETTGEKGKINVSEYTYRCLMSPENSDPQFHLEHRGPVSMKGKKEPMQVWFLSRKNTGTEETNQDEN
T1 sequence (P19686 1-690): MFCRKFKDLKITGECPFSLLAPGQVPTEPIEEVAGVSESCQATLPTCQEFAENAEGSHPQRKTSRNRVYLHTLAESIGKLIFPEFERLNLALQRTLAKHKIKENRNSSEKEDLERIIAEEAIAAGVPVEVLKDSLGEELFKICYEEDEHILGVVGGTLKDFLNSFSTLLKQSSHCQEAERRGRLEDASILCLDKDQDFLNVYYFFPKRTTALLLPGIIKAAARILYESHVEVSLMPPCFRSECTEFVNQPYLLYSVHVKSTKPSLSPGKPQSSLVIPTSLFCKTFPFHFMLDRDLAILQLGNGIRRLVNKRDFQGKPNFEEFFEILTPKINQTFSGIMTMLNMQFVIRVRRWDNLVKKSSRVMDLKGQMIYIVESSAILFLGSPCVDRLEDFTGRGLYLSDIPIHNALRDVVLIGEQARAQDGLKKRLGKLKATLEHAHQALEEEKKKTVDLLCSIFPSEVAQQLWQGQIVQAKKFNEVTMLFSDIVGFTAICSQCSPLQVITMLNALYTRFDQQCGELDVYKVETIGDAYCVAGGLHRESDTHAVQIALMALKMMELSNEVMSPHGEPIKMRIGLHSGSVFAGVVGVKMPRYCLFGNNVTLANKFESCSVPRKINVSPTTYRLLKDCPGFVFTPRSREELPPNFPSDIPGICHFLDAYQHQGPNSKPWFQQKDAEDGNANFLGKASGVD
Assay: B-2. Action on recombinant guanylate cyclase reporter cell line
Format: cell-based
Conditions: MEC = minimal effective concentration; in some cases mean values from individual determinations
In short: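 MEC values, meaning the lowest concentration producing a detectable response, were taken from a recombinant cyclase reporter cell assay. Where repeated, individual determinations were averaged.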

Structure (SMILES): CCC(C)(N)CNC(=O)c1c(C)nc2c(OCc3c(F)cccc3F)cc(C)cn12.Cl (single isomer, unassigned; enantiomer a) [Example 357, ent-N-(2-amino-2-methylbutyl)-8-[(2,6-difluorobenzyl)oxy]-2,6-dimethylimidazo[1,2-a]pyridine-3-carboxamide Hydrochloride (Enantiomer A)]
MEC: 0.03 µM

Structure (SMILES): Cc1cc(OCc2c(F)cccc2F)c2nc(C)c(C(=O)NCC(N)C#N)n2c1 (single isomer, unassigned; enantiomer a) [Example 401, ent-N-(2-amino-2-cyanoethyl)-8-[(2,6-difluorobenzyl)oxy]-2,6-dimethylimidazo[1,2-a]pyridine-3-carboxamide (Enantiomer A)]
MEC: 1.00 µM

Structure (SMILES): Cc1cc(OCc2c(F)ccc(F)c2F)c2nc(C)c(C(=O)NCC(C)(N)CCC(F)(F)F)n2c1 (single isomer, unassigned; enantiomer a) [Example 410, ent-N-(2-amino-5,5,5-trifluoro-2-methylpentyl)-2,6-dimethyl-8-[(2,3,6-trifluorobenzyl)oxy]imidazo[1,2-a]pyridine-3-carboxamide (Enantiomer A)]
MEC: 0.10 µM

Structure (SMILES): Cc1nc2c(OCc3c(F)cccc3F)cccn2c1C(=O)NC(CN)CC(F)(F)F (single isomer, unassigned; enantiomer b) [Example 3, ent-N-(1-Amino-4,4,4-trifluorobutan-2-yl)-8-[(2,6-difluorobenzyl)oxy]-2-methylimidazo[1,2-a]-pyridine-3-carboxamide (Enantiomer B)]
MEC: 0.30 µM

Structure (SMILES): Cc1nc2c(OCc3c(F)cccc3F)cccn2c1C(=O)NC(CN)CCCC(F)(F)F (single isomer, unassigned; enantiomer b) [Example 6, ent-N-(1-Amino-6,6,6-trifluorohexan-2-yl)-8-[(2,6-difluorobenzyl)oxy]-2-methylimidazo[1,2-a]-pyridine-3-carboxamide (Enantiomer B)]
MEC: 0.23 µM

Structure (SMILES): Cc1nc2c(OCc3c(F)cccc3F)cccn2c1C(=O)NC(CN)c1ccc(Cl)cc1 (single isomer, unassigned; enantiomer b) [Example 15, ent-N-[2-Amino-1-(4-chlorophenyl)ethyl]-8-[(2,6-difluorobenzyl)oxy]-2-methylimidazo[1,2-a]-pyridine-3-carboxamide (Enantiomer B)]
MEC: 0.53 µM

Structure (SMILES): Cc1nc2c(OCc3c(F)cccc3F)cccn2c1C(=O)NC(CN)c1ccccc1 (single isomer, unassigned; enantiomer b) [Example 18, ent-N-(2-Amino-1-phenylethyl)-8-[(2,6-difluorobenzyl)oxy]-2-methylimidazo[1,2-a]pyridine-3-carboxamide (Enantiomer B)]
MEC: 0.55 µM

Structure (SMILES): Cc1cc(OC(C)c2c(F)cccc2F)c2nc(C)c(C(=O)NCC(C)(C)N)n2c1 (single isomer, unassigned; enantiomer b) [Example 256, ent-N-(2-Amino-2-methylpropyl)-8-[1-(2,6-difluorophenyl)ethoxy]-2,6-dimethylimidazo[1,2-a]-pyridine-3-carboxamide (Enantiomer B)]
MEC: 3.00 µM

Structure (SMILES): Cc1cc(OCc2c(F)cccc2F)c2nc(C)c(C(=O)NCC(C)(N)C3CC3)n2c1 (single isomer, unassigned; enantiomer b) [Example 261, ent-N-(2-Amino-2-cyclopropylpropyl)-8-[(2,6-difluorobenzyl)oxy]-2,6-dimethylimidazo[1,2-a]-pyridine-3-carboxamide (Enantiomer B)]
MEC: 0.10 µM

Structure (SMILES): CCC(C)(N)CNC(=O)c1c(C)nc2c(OCc3c(F)ccc(F)c3F)cc(C)cn12 (single isomer, unassigned; enantiomer b) [Example 275, ent-N-(2-Amino-2-methylbutyl)-2,6-dimethyl-8-[(2,3,6-trifluorobenzyl)oxy]imidazo[1,2-a]-pyridine-3-carboxamide (Enantiomer B)]
MEC: 0.10 µM

Structure (SMILES): CCCC(C)(N)CNC(=O)c1c(C)nc2c(OCc3c(F)cccc3F)cc(OC)cn12 (single isomer, unassigned; enantiomer b) [Example 278, ent-N-(2-amino-2-methylpentyl)-8-[(2,6-difluorobenzyl)oxy]-6-methoxy-2-methylimidazo[1,2-a]pyridine-3-carboxamide (Enantiomer B)]
MEC: 0.3 µM

Structure (SMILES): CCCC(C)(N)CNC(=O)c1c(C)nc2c(OCc3c(F)cccc3F)cc(N3CCOCC3)cn12 (single isomer, unassigned; enantiomer b) [Example 280, ent-N-(2-amino-2-methylpentyl)-8-[(2,6-difluorobenzyl)oxy]-2-methyl-6-(morpholin-4-yl)imidazo[1,2-a]pyridine-3-carboxamide (Enantiomer B)]
MEC: 0.65 µM

Structure (SMILES): CCCC(C)(N)CNC(=O)c1c(C)nc2c(OCc3c(F)cccc3F)cc(C3CC3)cn12 (single isomer, unassigned; enantiomer b) [Example 281, ent-N-(2-amino-2-methylpentyl)-6-cyclopropyl-8-[(2,6-difluorobenzyl)oxy]-2-methylimidazo[1,2-a]pyridine-3-carboxamide (Enantiomer B)]
MEC: 0.3 µM

Structure (SMILES): Cc1cc(OCc2c(F)cccc2F)c2nc(C)c(C(=O)NCC(C)(N)CF)n2c1 (single isomer, unassigned; enantiomer b) [Example 284, ent-N-(2-amino-3-fluoro-2-methylpropyl)-8-[(2,6-difluorobenzyl)oxy]-2,6-dimethylimidazo[1,2-a]pyridine-3-carboxamide (Enantiomer B)]
MEC: 0.1 µM

The remaining lines, values ahead:

MEC: 0.10 µM
Structure (SMILES): Cc1cc(OCc2c(F)cccc2F)c2nc(C)c(C(=O)NCC(C)(N)CCC(F)(F)F)n2c1 (single isomer, unassigned; enantiomer a) [Example 408, ent-N-(2-amino-5,5,5-trifluoro-2-methylpentyl)-8-[(2,6-difluorobenzyl)oxy]-2,6-dimethylimidazo[1,2-a]pyridine-3-carboxamide (Enantiomer A)]

MEC: 0.30 µM
Structure (SMILES): Cc1nc2c(OCc3c(F)cccc3F)cccn2c1C(=O)NC(CN)c1ccc(F)cc1 (single isomer, unassigned; enantiomer b) [Example 10, ent-N-[2-Amino-1-(4-fluorophenyl)ethyl]-8-[(2,6-difluorobenzyl)oxy]-2-methylimidazo[1,2-a]-pyridine-3-carboxamide (Enantiomer B)]

MEC: 1.00 µM
Structure (SMILES): Cc1nc2c(OCc3c(F)cccc3F)cccn2c1C(=O)NC(C)CN (single isomer, unassigned; enantiomer b) [Example 20, ent-N-(1-Aminopropan-2-yl)-8-[(2,6-difluorobenzyl)oxy]-2-methylimidazo[1,2-a]pyridine-3-carboxamide (Enantiomer B)]

MEC: 0.30 µM
Structure (SMILES): Cc1nc2c(OCc3c(F)cccc3F)cc(Cl)cn2c1C(=O)NCC(C)N (single isomer, unassigned; enantiomer b) [Example 30, ent-N-(2-Aminopropyl)-6-chloro-8-[(2,6-difluorobenzyl)oxy]-2-methylimidazo[1,2-a]pyridine-3-carboxamide (Enantiomer B)]

MEC: 1.00 µM
Structure (SMILES): COCC(N)CNC(=O)c1c(C)nc2c(OCc3c(F)cccc3F)cccn12 (single isomer, unassigned; enantiomer b) [Example 248, ent-N-(2-Amino-3-methoxypropyl)-8-[(2,6-difluorobenzyl)oxy]-2-methylimidazo[1,2-a]pyridine-3-carboxamide (Enantiomer B)]

MEC: 0.10 µM
Structure (SMILES): Cc1nc2c(OCc3c(F)cccc3F)cccn2c1C(=O)NCC(C)(N)CCOCc1ccccc1 (single isomer, unassigned; enantiomer b) [Example 267, ent-N-[2-Amino-4-(benzyloxy)-2-methylbutyl]-8-[(2,6-difluorobenzyl)oxy]-2-methylimidazo[1,2-a]pyridine-3-carboxamide (Enantiomer B)]

MEC: 0.65 µM
Structure (SMILES): Cc1cc(OCc2c(F)cccc2F)c2nc(C)c(C(=O)NCC(C)(N)CO)n2c1 (single isomer, unassigned; enantiomer b) [Example 269, ent-N-(2-Amino-3-hydroxy-2-methylpropyl)-8-[(2,6-difluorobenzyl)oxy]-2,6-dimethylimidazo-[1,2-a]pyridine-3-carboxamide (Enantiomer B)]
